Results reported in patent US4780476A, “Azoniaspironortropanol esters as asthma therapeutics and broncholytics” (Madaus GmbH & Co., priority 1985, dated 1988).

Tested on: T1, isolated tracheal spirals of the guinea pig (Cavia porcellus)
T1 construct: the whole of the trachea is roughly freed beginning from the larynx up to the tracheal bifurcation, removed and transferred; from tissue; host or cells: isolated trachea (spiral strips) of male Pirbright white guinea pigs
Assay: anticholinergic effectiveness on isolated tracheal spirals (antagonism against acetyl-β-methylcholine chloride)
Settings: ratio of maximum agonist effect in presence (EAmB) and absence (EAm) of antagonist
Excerpt: A model for this is the measurement of the anticholinergic effectiveness on isolated tracheal spirals of the guinea pig.
The test substance used was 3α-benziloyloxynortropane-8-spiro-1'-pyrrolidinium chloride (trospium chloride; MP 194), ipratropium bromide being used as comparison substance.
There is to be determined the anticholinergic effectiveness of MP 194 in comparison with the reference substance ipratropium bromide on the isolated tracheal spirals of the guinea pig.
3.1.1. animal species: guinea pig
3.1.2. animal strain: Pirbright white
3.3.1. test substance (test antagonist) trospium chloride (MP 194) (M.W. 428)
3.3.2. reference substance (reference antagonist) ipratropium bromide (Atrovent) (M.W. 412.4)
3.3.3.1. acetyl-β-methylcholine chloride (Sigma) (M.W. 195.7)
The guinea pig is stunned by a blow on the neck. Subsequently, the whole of the trachea is roughly freed beginning from the larynx up to the tracheal bifurcation, removed and transferred to tempered (37° C.) and carbogenized tyrode solution. After surrounding connective tissue has been removed as far as possible, the preparation is cut up spirally by means of fine scissors at an angle of about 45° and separated into two equal sized sections. After weighing, both preparations are provided proximally and distally with a silk thread. One thread serves for fixing the preparation by means of a loop to the bottom of the bath and the other is connected via a hook with the transducer above the bath vessel.
Subsequently, the preparations, corresponding to the calibration, are prestressed with about 80 mN and equilibrated from 50-100 minutes. During the equilibration phase, the nutrient solution in the bath vessels is renewed in 15 minute intervals. As soon as the resting muscle tonus of the preparation has stabilized, there takes place the cumulative addition of the agonist, whereby the addition of the next highest concentration first takes place when no further increase of contraction is recognisable (plateau). When the maximum contraction height of the preparation is achieved, the cumulative agonist addition is ended and the preparation is rinsed. After a further equilibration phase (v. supra), the cumulative addition of the agonist is repeated but this time in the presence of the test or reference antagonist.
3.6.1. The perfusion part consists of an L-shaped organ bath in the hollow space of which (longer limb) runs a double glass spiral through which the nutrient solution is passed into the actual bath vessel (28 ml. content; shorter limb). This bath vessel is divided into two chambers which are, however, connected together by two transverse connections. […] The inlet chambers as well as the feeding glass spirals are tempered from the outside to 37° C. by a separate liquid circulation. This tempering takes place with the help of a "Colora" ultra-thermostat type K (Colora Messtechnik GmbH, Dusseldorf, Germany) which serves as thermostat and pump. In order, in case of need, always to have available ready-for-use nutrient solution, above the organ bath is provided a double-walled storage container in which the nutrient solution is also tempered and carbogenised. This is connected via a glass stopcock and a polypropylene tube with double glass spiral in the interior of the organ bath.
3.6.2. The measurement and recording part includes a transducer (Statham-Universal-Zelle UC-2; Hugo Sachs Elektronic KG, Hugstetten, Germany). By means of a hanging-in weight, a force of 40 mN is produced on the transducer which passes as electrical signal via a connecting cable to a bridge amplifier. The amplification is smoothly so regulated that the force provided corresponds to a constant value on the scale or an analogous value on the millimeter paper of the recorder (dependent upon the amplification; see below). After fixing the organ, the preparation is prestressed to the doubled mark, corresponding to 80 mN. […]

T1 sequence (H0W1Z3 1-590): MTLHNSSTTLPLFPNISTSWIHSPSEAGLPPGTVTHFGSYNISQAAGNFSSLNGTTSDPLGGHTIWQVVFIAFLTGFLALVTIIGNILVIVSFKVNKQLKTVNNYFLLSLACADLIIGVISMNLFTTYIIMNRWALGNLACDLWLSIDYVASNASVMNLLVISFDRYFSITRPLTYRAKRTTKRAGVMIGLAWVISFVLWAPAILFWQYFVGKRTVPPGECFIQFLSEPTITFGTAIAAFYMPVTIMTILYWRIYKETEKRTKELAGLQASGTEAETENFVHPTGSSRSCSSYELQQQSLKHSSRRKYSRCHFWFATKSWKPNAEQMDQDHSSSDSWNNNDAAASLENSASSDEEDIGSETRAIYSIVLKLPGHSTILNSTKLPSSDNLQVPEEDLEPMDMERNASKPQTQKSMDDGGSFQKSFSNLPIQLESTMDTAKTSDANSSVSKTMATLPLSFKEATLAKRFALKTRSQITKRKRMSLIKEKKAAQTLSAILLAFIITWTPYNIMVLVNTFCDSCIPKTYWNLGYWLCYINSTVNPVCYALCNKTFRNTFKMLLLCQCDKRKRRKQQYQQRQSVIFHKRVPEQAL

O=C(O[C@H]1C[C@H]2CC[C@@H](C1)[N+]21CCCC1)C(O)(c1ccccc1)c1ccccc1 [trospium chloride, 3α-benziloyloxynortropane-8-spiro-1'-pyrrolidinium chloride]
EAmB/EAm ± s: 1.09 ± 0.22
